Experimental data from the supplement of paper PMC10307832.

Experiments:
Assay in all cases: relative viability (nuclei count vs DMSO), 5 days (fraction); higher = more cells survive
XMD14-99 + AZD7762 = compound: CN1CCN(CC1)C2=CC(=C(C=C2)NC3=NC(=C(S3)C(=O)C4=C(C=CC=C4Cl)Cl)N)OC [XMD14-99] + NC(=O)Nc1cc(-c2cccc(F)c2)sc1C(=O)N[C@H]1CCCNC1 [AZD7762] (partner 0.2 µM)
In short: (§1)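 A single step with final 0.05% Triton X-100, 1% formaldehyde and 1 ug/ml Hoechst fixed the cells and stained nuclei 5 days after treatment. Lung cancer cell lines in 1536-well plates had been treated by pin tool the day after seeding with one drug alone or a fixed anchor-drug dose plus five library-drug doses (not always all listed) in √10 steps, and nuclei were counted on 4× images. Relative viability is the ratio of nuclei in treated wells to nuclei in vehicle wells, taken as the median of duplicate plates.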

AZD1208 + Decitabine = compound: N[C@@H]1CCCN(c2c(/C=C3\SC(=O)NC3=O)cccc2-c2ccccc2)C1 [AZD1208] + Nc1ncn([C@H]2C[C@H](O)[C@@H](CO)O2)c(=O)n1 [Decitabine] (partner 2 µM)
In short: as §1

AZD1208 + Crizotinib = compound: N[C@@H]1CCCN(c2c(/C=C3\SC(=O)NC3=O)cccc2-c2ccccc2)C1 [AZD1208] + C[C@@H](Oc1cc(-c2cnn(C3CCNCC3)c2)cnc1N)c1c(Cl)ccc(F)c1Cl [Crizotinib] (partner 1 µM)
In short: as §1

XMD14-99 + Palbociclib = compound: CN1CCN(CC1)C2=CC(=C(C=C2)NC3=NC(=C(S3)C(=O)C4=C(C=CC=C4Cl)Cl)N)OC [XMD14-99] + CC(=O)c1c(C)c2cnc(Nc3ccc(N4CCNCC4)cn3)nc2n(C2CCCC2)c1=O [Palbociclib] (partner 0.5 µM)
In short: as §1

Row | Cell Line | relative viability (XMD14-99 + AZD7762; first compound 0.08 µM) | relative viability (XMD14-99 + AZD7762; first compound 0.8 µM) | relative viability (XMD14-99 + AZD7762; first compound 2.53 µM) | relative viability (XMD14-99 + AZD7762; first compound 8 µM) | relative viability (AZD1208 + Decitabine; first compound 0.08 µM) | relative viability (AZD1208 + Decitabine; first compound 0.253 µM) | relative viability (AZD1208 + Decitabine; first compound 0.8 µM) | relative viability (AZD1208 + Decitabine; first compound 2.53 µM) | relative viability (AZD1208 + Decitabine; first compound 8 µM) | relative viability (AZD1208 + Crizotinib; first compound 0.08 µM) | relative viability (AZD1208 + Crizotinib; first compound 0.253 µM) | relative viability (AZD1208 + Crizotinib; first compound 0.8 µM) | relative viability (AZD1208 + Crizotinib; first compound 2.53 µM) | relative viability (AZD1208 + Crizotinib; first compound 8 µM) | relative viability (XMD14-99 + Palbociclib; first compound 0.08 µM) | relative viability (XMD14-99 + Palbociclib; first compound 0.8 µM) | relative viability (XMD14-99 + Palbociclib; first compound 2.53 µM) | relative viability (XMD14-99 + Palbociclib; first compound 8 µM)
1 | NCI-H441 | 0.939 | 1.2 | 1.3 | 0.793 | 0.205 | 0.298 | 0.291 | 0.224 | 0.264 | 0.73 | 0.674 | 0.667 | 0.526 | 0.42 | 0.223 | 0.19 | 0.225 | 0.22
2 | PC-14 | 0.37 | 0.416 | 0.36 | 0.309 | 0.254 | 0.209 | 0.224 | 0.203 | 0.207 | 0.925 | 1.02 | 0.991 | 0.923 | 0.906 | 0.567 | 0.527 | 0.5 | 0.24
3 | HARA | 0.334 | 0.261 | 0.237 | 0.217 | 0.767 | 0.578 | 0.486 | 0.536 | 0.545 | 0.938 | 1.02 | 1.02 | 1.02 | 0.943 | 0.291 | 0.25 | 0.281 | 0.204
4 | NCI-H2126 | 0.979 | 0.984 | 1.05 | 0.942 | 0.563 | 0.641 | 0.523 | 0.501 | 0.475 | 0.993 | 1.04 | 0.991 | 1.01 | 0.974 | 0.326 | 0.337 | 0.37 | 0.362
